Laboratory results as given in ChEMBL document CHEMBL1201862, “PubChem BioAssay data set” (2004).
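In this assay, cells in 96-well plates receive the compound at five concentrations for 48 hours. Endpoints are linearly interpolated between the surrounding concentrations. GI50 = concentration required for 50% inhibition of growth.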 The source made the active and inactive calls. Cut-off read from the data, not from the text of the source: active = GI50 up to about 1.1 µM and inactive = higher.

Tests used:
Assay in all cases: NCI-60 cell line screen, 48 h
786-0 = tested on: 786-0
A498 = tested on: A498
A549 = tested on: A549
ACHN = tested on: ACHN
BT-549 = tested on: BT-549
CAKI-1 = tested on: CAKI-1
CCRF-CEM = tested on: CCRF-CEM
COLO 205 = tested on: COLO 205
DU-145 = tested on: DU-145
EKVX = tested on: EKVX
HCC 2998 = tested on: HCC 2998
HCT-116 = tested on: HCT-116
HCT-15 = tested on: HCT-15
HL-60 = tested on: HL-60
HOP-62 = tested on: HOP-62
HOP-92 = tested on: HOP-92
HT-29 = tested on: HT-29
Hs-578T = tested on: Hs-578T
IGROV-1 = tested on: IGROV-1
K562 = tested on: K562
KM12 = tested on: KM12
LOX IMVI = tested on: LOX IMVI
M14 = tested on: M14
MCF7 = tested on: MCF7
MDA-MB-231 = tested on: MDA-MB-231
MDA-MB-435 = tested on: MDA-MB-435
MDA-N = tested on: MDA-N
MOLT-4 = tested on: MOLT-4
Malme-3M = tested on: Malme-3M
NCI-H226 = tested on: NCI-H226
NCI-H23 = tested on: NCI-H23
NCI-H460 = tested on: NCI-H460
NCI-H522 = tested on: NCI-H522
NCI/ADR-RES = tested on: NCI/ADR-RES
OVCAR-3 = tested on: OVCAR-3
OVCAR-4 = tested on: OVCAR-4
OVCAR-5 = tested on: OVCAR-5
OVCAR-8 = tested on: OVCAR-8
PC-3 = tested on: PC-3
RPMI-8226 = tested on: RPMI-8226
RXF 393 = tested on: RXF 393
SF-268 = tested on: SF-268
SF-295 = tested on: SF-295
SF-539 = tested on: SF-539
SK-MEL-28 = tested on: SK-MEL-28
SK-MEL-2 = tested on: SK-MEL-2
SK-MEL-5 = tested on: SK-MEL-5
SK-OV-3 = tested on: SK-OV-3
SN12C = tested on: SN12C
SNB-19 = tested on: SNB-19
SW-620 = tested on: SW-620
T47D = tested on: T47D
TK-10 = tested on: TK-10
U-251 = tested on: U-251
UACC-257 = tested on: UACC-257
UACC-62 = tested on: UACC-62
UO-31 = tested on: UO-31
SNB-75 = tested on: SNB-75
SR = tested on: SR

For `c1cc(Sc2nc(Sc3ccncc3)nc(Sc3ccncc3)n2)ccn1`, the GI50 (786-0) was > 100 µM (inactive), the GI50 (A498) was > 100 µM (inactive) and the GI50 (A549) was > 100 µM (inactive). For the same molecule, the GI50 (ACHN) was > 100 µM (inactive), the GI50 (BT-549) was > 100 µM (inactive) and the GI50 (CAKI-1) was > 100 µM (inactive). For the same molecule, the GI50 (CCRF-CEM) was > 100 µM (inactive), the GI50 (COLO 205) was > 100 µM (inactive) and the GI50 (DU-145) was > 100 µM (inactive). The GI50 (EKVX) was > 100 µM (inactive), the GI50 (HCC 2998) was > 100 µM (inactive) and the GI50 (HCT-116) was > 100 µM (inactive). For the same molecule, the GI50 (HCT-15) was over 100 µM, the GI50 (HL-60) was > 100 µM (inactive) and the GI50 (HOP-62) was > 100 µM (inactive). The GI50 (HOP-92) was > 100 µM (inactive), the GI50 (HT-29) was > 100 µM (inactive) and the GI50 (Hs-578T) was > 100 µM (inactive). For the same molecule, the GI50 (IGROV-1) was > 100 µM (inactive), the GI50 (K562) was > 100 µM (inactive) and the GI50 (KM12) was > 100 µM (inactive). The GI50 (LOX IMVI) was > 100 µM (inactive), the GI50 (M14) was > 100 µM (inactive) and the GI50 (MCF7) was > 100 µM (inactive). For the same molecule, the GI50 (MDA-MB-231) was > 100 µM (inactive), the GI50 (MDA-MB-435) was > 100 µM (inactive) and the GI50 (MDA-N) was > 100 µM (inactive). The GI50 (MOLT-4) was > 100 µM (inactive), the GI50 (Malme-3M) was > 100 µM (inactive) and the GI50 (NCI-H226) was > 100 µM (inactive). The GI50 (NCI-H23) was > 100 µM (inactive), the GI50 (NCI-H460) was > 100 µM (inactive) and the GI50 (NCI-H522) was > 100 µM (inactive). For the same molecule, the GI50 (NCI/ADR-RES) was > 100 µM (inactive), the GI50 (OVCAR-3) was > 100 µM (inactive) and the GI50 (OVCAR-4) was > 100 µM (inactive). The GI50 (OVCAR-5) was > 100 µM (inactive), the GI50 (OVCAR-8) was > 100 µM (inactive) and the GI50 (PC-3) was > 100 µM (inactive). The GI50 (RPMI-8226) was > 100 µM (inactive), the GI50 (RXF 393) was > 100 µM (inactive) and the GI50 (SF-268) was > 100 µM (inactive). The GI50 (SF-295) was > 100 µM (inactive), the GI50 (SF-539) was > 100 µM (inactive) and the GI50 (SK-MEL-28) was > 100 µM (inactive). For the same molecule, the GI50 (SK-MEL-2) was > 100 µM (inactive), the GI50 (SK-MEL-5) was > 100 µM (inactive) and the GI50 (SK-OV-3) was > 100 µM (inactive). For the same molecule, the GI50 (SN12C) was > 100 µM (inactive), the GI50 (SNB-19) was > 100 µM (inactive) and the GI50 (SW-620) was > 100 µM (inactive). For the same molecule, the GI50 (T47D) was > 100 µM (inactive), the GI50 (TK-10) was > 100 µM (inactive) and the GI50 (U-251) was > 100 µM (inactive). The GI50 (UACC-257) was > 100 µM (inactive), the GI50 (UACC-62) was > 100 µM (inactive) and the GI50 (UO-31) was > 100 µM (inactive).
With `O=C(N/N=C(COc1ccccc1Cl)\N=C\c1cccnc1)c1ccncc1` the GI50 (786-0) was > 100 µM (inactive), the GI50 (A498) was > 100 µM (inactive) and the GI50 (A549) was > 100 µM (inactive). For the same molecule, the GI50 (ACHN) was > 100 µM (inactive), the GI50 (BT-549) was > 100 µM (inactive) and the GI50 (CAKI-1) was > 100 µM (inactive). The GI50 (CCRF-CEM) was > 100 µM (inactive), the GI50 (COLO 205) was > 100 µM (inactive) and the GI50 (DU-145) was > 100 µM (inactive). For the same molecule, the GI50 (EKVX) was > 100 µM (inactive), the GI50 (HCC 2998) was > 100 µM (inactive) and the GI50 (HCT-116) was > 100 µM (inactive). The GI50 (HCT-15) was over 100 µM, the GI50 (HL-60) was > 100 µM (inactive) and the GI50 (HOP-62) was > 100 µM (inactive). The GI50 (HT-29) was > 100 µM (inactive), the GI50 (Hs-578T) was 66.2 µM (inactive) and the GI50 (IGROV-1) was > 100 µM (inactive). For the same molecule, the GI50 (K562) was > 100 µM (inactive), the GI50 (KM12) was > 100 µM (inactive) and the GI50 (LOX IMVI) was > 100 µM (inactive). For the same molecule, the GI50 (M14) was > 100 µM (inactive), the GI50 (MCF7) was > 100 µM (inactive) and the GI50 (MDA-MB-231) was > 100 µM (inactive). For the same molecule, the GI50 (MDA-MB-435) was > 100 µM (inactive), the GI50 (MDA-N) was > 100 µM (inactive) and the GI50 (MOLT-4) was > 100 µM (inactive). For the same molecule, the GI50 (Malme-3M) was > 100 µM (inactive), the GI50 (NCI-H226) was > 100 µM (inactive) and the GI50 (NCI-H23) was > 100 µM (inactive). For the same molecule, the GI50 (NCI-H460) was > 100 µM (inactive), the GI50 (NCI-H522) was > 100 µM (inactive) and the GI50 (NCI/ADR-RES) was > 100 µM (inactive). For the same molecule, the GI50 (OVCAR-3) was > 100 µM (inactive), the GI50 (OVCAR-4) was > 100 µM (inactive) and the GI50 (OVCAR-5) was > 100 µM (inactive). For the same molecule, the GI50 (OVCAR-8) was > 100 µM (inactive), the GI50 (PC-3) was > 100 µM (inactive) and the GI50 (RPMI-8226) was > 100 µM (inactive). For the same molecule, the GI50 (RXF 393) was > 100 µM (inactive), the GI50 (SF-268) was > 100 µM (inactive) and the GI50 (SF-295) was > 100 µM (inactive). The GI50 (SF-539) was > 100 µM (inactive), the GI50 (SK-MEL-28) was > 100 µM (inactive) and the GI50 (SK-MEL-2) was > 100 µM (inactive). For the same molecule, the GI50 (SK-OV-3) was > 100 µM (inactive), the GI50 (SN12C) was > 100 µM (inactive) and the GI50 (SNB-19) was > 100 µM (inactive). For the same molecule, the GI50 (SNB-75) was > 100 µM (inactive), the GI50 (SW-620) was > 100 µM (inactive) and the GI50 (T47D) was > 100 µM (inactive). The GI50 (TK-10) was > 100 µM (inactive), the GI50 (U-251) was > 100 µM (inactive) and the GI50 (UACC-257) was > 100 µM (inactive). For the same molecule, the GI50 (UACC-62) was > 100 µM (inactive).
With `CC(C)c1ccc2c(c1)C=C1OC(=O)[C@]3(C)CCC[C@@]2(C)C13` (stereo not given in full) the GI50 (786-0) was > 100 µM (inactive), the GI50 (A549) was > 100 µM (inactive) and the GI50 (ACHN) was > 100 µM (inactive). For the same molecule, the GI50 (BT-549) was > 100 µM (inactive), the GI50 (CAKI-1) was > 100 µM (inactive) and the GI50 (CCRF-CEM) was > 100 µM (inactive). The GI50 (COLO 205) was > 100 µM (inactive), the GI50 (DU-145) was > 100 µM (inactive) and the GI50 (EKVX) was > 100 µM (inactive). The GI50 (HCC 2998) was > 100 µM (inactive), the GI50 (HCT-116) was > 100 µM (inactive) and the GI50 (HCT-15) was over 100 µM. The GI50 (HL-60) was 44.2 µM (inactive), the GI50 (HOP-62) was > 100 µM (inactive) and the GI50 (HT-29) was > 100 µM (inactive). The GI50 (Hs-578T) was > 100 µM (inactive), the GI50 (IGROV-1) was > 100 µM (inactive) and the GI50 (K562) was > 100 µM (inactive). The GI50 (KM12) was > 100 µM (inactive), the GI50 (M14) was > 100 µM (inactive) and the GI50 (MCF7) was > 100 µM (inactive). For the same molecule, the GI50 (MDA-MB-231) was > 100 µM (inactive), the GI50 (MDA-MB-435) was > 100 µM (inactive) and the GI50 (MDA-N) was > 100 µM (inactive). For the same molecule, the GI50 (MOLT-4) was > 100 µM (inactive), the GI50 (NCI-H226) was > 100 µM (inactive) and the GI50 (NCI-H23) was > 100 µM (inactive). The GI50 (NCI-H460) was > 100 µM (inactive), the GI50 (NCI-H522) was 73.5 µM (inactive) and the GI50 (NCI/ADR-RES) was > 100 µM (inactive). For the same molecule, the GI50 (OVCAR-3) was > 100 µM (inactive), the GI50 (OVCAR-4) was > 100 µM (inactive) and the GI50 (OVCAR-8) was > 100 µM (inactive). The GI50 (PC-3) was > 100 µM (inactive), the GI50 (RPMI-8226) was > 100 µM (inactive) and the GI50 (RXF 393) was > 100 µM (inactive). The GI50 (SF-268) was > 100 µM (inactive), the GI50 (SF-295) was > 100 µM (inactive) and the GI50 (SF-539) was > 100 µM (inactive). The GI50 (SK-MEL-28) was > 100 µM (inactive), the GI50 (SK-MEL-5) was > 100 µM (inactive) and the GI50 (SK-OV-3) was > 100 µM (inactive). The GI50 (SN12C) was > 100 µM (inactive), the GI50 (SNB-19) was > 100 µM (inactive) and the GI50 (SNB-75) was > 100 µM (inactive). The GI50 (SR) was > 100 µM (inactive), the GI50 (SW-620) was > 100 µM (inactive) and the GI50 (T47D) was > 100 µM (inactive). For the same molecule, the GI50 (TK-10) was > 100 µM (inactive), the GI50 (U-251) was > 100 µM (inactive) and the GI50 (UACC-257) was > 100 µM (inactive). For the same molecule, the GI50 (UACC-62) was > 100 µM (inactive) and the GI50 (UO-31) was > 100 µM (inactive).
